Active and inactive are the calls of the source. The rule behind the calls is not given here. Bridge positions count the residues as written; N and C are the ends. Square brackets hold non-standard residues; d marks the D form. Peptide text beside a SMILES is read from it. * marks the point of attachment. X1 = CC[C@H](C)CCCCC(=O)*; Dab = NCC[C@H](N)C(=O)O
How the values were obtained:
Escherichia coli [1] = test: In vivo antibacterial activity against Escherichia coli intraperitoneally injected into C57BL/6 mouse peritonitis model assessed as mouse survival at 2.5 mg/kg, ip measured after 48 hrs relative to control; type: functional
[2] = Toxicity in C57BL/6 mouse assessed as death at 50 mg/kg, ip measured on day 4; type: organism-based; details: in vivo, 96 h, time 4 day
Klebsiella pneumoniae = test: Antibacterial activity against Klebsiella pneumoniae ATCC 13883 assessed as inhibition of bacterial growth measured after 24 hrs by broth microdilution method; type: functional
Escherichia coli [3] = test: In vivo antibacterial activity against Escherichia coli intraperitoneally injected into C57BL/6 mouse peritonitis model assessed as reduction in bacterial load in spleen at 2.5 mg/kg, ip measured after 48 hrs relative to control; type: functional, organism-based
Escherichia coli [4] = test: In vivo antibacterial activity against Escherichia coli intraperitoneally injected into C57BL/6 mouse peritonitis model assessed as reduction in bacterial load in blood at 2.5 mg/kg, ip measured after 48 hrs relative to control; type: functional, organism-based
[5] = Toxicity in C57BL/6 female mouse assessed as apparent inflammatory exudates ([…], neutrophiles, macrophages) in lungs at 25 mg/kg, ip measured during 14 days of study by H and E staining based analysis; type: organism-based; details: in vivo, 336 h, time 14 day
[6] = Toxicity in C57BL/6 female mouse assessed as haemorrhagic point and blurred white pulp boundary in liver at 25 mg/kg, ip measured during 14 days of study by H and E staining based analysis; type: organism-based; details: in vivo, 336 h, time 14 day
[7] = Stability of the compound in human serum assessed as peptide degradation by RP-HPLC analysis; type: ADME, cell-free; details: read-out: T50 (converted)
[8] = Toxicity in C57BL/6 female mouse assessed as haemorrhagic point and blurred white pulp boundary in spleen at 25 mg/kg, ip measured during 14 days of study by H and E staining based analysis; type: organism-based; details: in vivo, 336 h, time 14 day
Mus musculus [9] = test: In vivo anti-inflammatory efficacy in Escherichia coli intraperitoneally injected into C57BL/6 mouse peritonitis model assessed as reduction in IL-6 level in blood at 2.5 mg/kg, ip measured after 48 hrs by ELISA; type: functional, organism-based
Escherichia coli [10] = test: In vivo antibacterial activity against Escherichia coli intraperitoneally injected into C57BL/6 mouse peritonitis model assessed as reduction in bacterial load in kidney at 2.5 mg/kg, ip measured after 48 hrs relative to control; type: functional, organism-based
Mus musculus [11] = test: In vivo anti-inflammatory efficacy in Escherichia coli intraperitoneally injected into C57BL/6 mouse peritonitis model assessed as reduction in TNF-alpha level in blood at 2.5 mg/kg, ip measured after 48 hrs by ELISA; type: functional, organism-based
Cell membrane = test: Induction of Outer membrane damage in Escherichia coli assessed as irregular collapsed and rough surface membrane at 5 uM measured after 24 hrs by SEM imaging analysis
Staphylococcus aureus = test: Antibacterial activity against Staphylococcus aureus ATCC 25923 assessed as inhibition of bacterial growth measured after 24 hrs by broth microdilution method; type: functional
[12] = Toxicity in C57BL/6 mouse assessed as increase in body weight at 25 mg/kg, ip measured during 14 days of study; type: organism-based; details: in vivo, 336 h, time 14 day
Escherichia coli [13] = test: In vivo antibacterial activity against Escherichia coli intraperitoneally injected into C57BL/6 mouse peritonitis model assessed as reduction in bacterial load in liver at 2.5 mg/kg, ip measured after 48 hrs relative to control; type: functional, organism-based
[14] = Stability of the compound in human serum assessed as remaining peptide by RP-HPLC analysis; type: ADME, cell-free
[15] = Hemolytic activity in human RBC assessed as hemolysis incubated for 1 hr by microplate reader; type: toxicity, cell-based, Erythrocyte; details: red blood cells
Escherichia coli [16] = test: In vivo antibacterial activity against Escherichia coli intraperitoneally injected into C57BL/6 mouse peritonitis model assessed as reduction in bacterial load in lung at 2.5 mg/kg, ip measured after 48 hrs relative to control; type: functional, organism-based
Mus musculus [17] = test: In vivo anti-inflammatory efficacy in Escherichia coli intraperitoneally injected into C57BL/6 mouse peritonitis model assessed as reduction in IL-1beta level in blood at 2.5 mg/kg, ip measured after 48 hrs by ELISA; type: functional, organism-based
[18] = Toxicity in C57BL/6 female mouse assessed as juxtaglomerular cells and interstitial fibrous tissues in kidney at 25 mg/kg, ip measured during 14 days of study by H and E staining based analysis; type: organism-based; details: in vivo, 336 h, time 14 day
Pseudomonas aeruginosa = test: Antibacterial activity against Pseudomonas aeruginosa PAO1 assessed as inhibition of bacterial growth measured after 24 hrs by broth microdilution method; type: functional
[19] = Stability of the compound in human serum assessed as retention time by RP-HPLC analysis; type: ADME, cell-free
[20] = Toxicity in C57BL/6 mouse assessed as death at 25 mg/kg, ip measured during 14 days of study; type: organism-based; details: in vivo, 336 h, time 14 day

## CC(C)CCCCC(=O)N[C@@H](CCN)C(=O)N[C@H](C(=O)N[C@@H](CCN)C(=O)N[C@H]1CCNC(=O)[C@H]([C@@H](C)O)NC(=O)[C@H](CCN)NC(=O)[C@H](CCN)NC(=O)[C@H](CC(C)C)NC(=O)[C@@H](Cc2ccccc2)NC(=O)[C@H](CCN)NC1=O)[C@@H](C)O.CC[C@H](C)CCCCC(=O)N[C@@H](CCN)C(=O)N[C@H](C(=O)N[C@@H](CCN)C(=O)N[C@H]1CCNC(=O)[C@H]([C@@H](C)O)NC(=O)[C@H](CCN)NC(=O)[C@H](CCN)NC(=O)[C@H](CC(C)C)NC(=O)[C@@H](Cc2ccccc2)NC(=O)[C@H](CCN)NC1=O)[C@@H](C)O (X1-[Dab]T[Dab][Dab][Dab][dF]L[Dab][Dab]T; lactam 4-C)
Escherichia coli [1]
  Activity: 100%

## Ac-KWKLFKKIEKVGQNIRDGIIKAGPAVAVVGQATQIAK-NH2
[2]
  Activity: Toxic
Klebsiella pneumoniae
  MIC: 12.5 µM
Escherichia coli [3]
  Activity: Active
Escherichia coli [4]
  Activity: Active
[5]
  Activity: Non-toxic
[6]
  Activity: Non-toxic
Escherichia coli [1]
  Activity: 50%
[7]
  half-life: 130 min
[8]
  Activity: Non-toxic
Mus musculus [9]
  Activity: Active
Escherichia coli [10]
  Activity: Active
Mus musculus [11]
  Activity: Active
Cell membrane
  Activity: Active
Staphylococcus aureus
  MIC: > 100 µM
[12]
  Activity: Toxic
Escherichia coli [13]
  Activity: Active
[14]
  Stability: > 50%
[15]
  HC50 at 1 h: 174 µM
Escherichia coli [16]
  Activity: Active
Mus musculus [17]
  Activity: Active
[18]
  Activity: Non-toxic
Pseudomonas aeruginosa
  MIC: 100 µM
[19]
  Retention_time: 21.69 min
[20]
  Activity: Non-toxic

— ChEMBL document CHEMBL6115030, “Systematic All-Hydrocarbon Stapling Analysis for Cecropin A Generates a Potent and Stable Antimicrobial Peptide” (J Med Chem, 2025)
